Measured values taken from patent US20050037436A1, “Test systems and the use thereof for identifying and characterizing compounds” (priority 2000, published 2005).

Test system: untransfected HEK-293 cells
Test: Ca2+ imaging of untransfected or GFP-transfected HEK-293 cells (control)
Format: cell-based, human
Experimental: The intracellular free Ca^2+ concentration [Ca^2+]i was measured in COS-7 and HEK293 cells transiently transfected with the HC110-R-EGFP or β2-AR-EGFP construct using the calcium imaging method (see also FIG. 11). In each case 2×10^5 COS-7 and HEK293 cells were applied to a 42 mm cover glass coated with 1% gelatine in 55 mm tissue culture dishes with 5 ml of DMEM medium (with 10% FCS and pen/strep). The transfection took place with the aid of the non-liposomal transfection reagent FuGENE 6 (Roche Molecular Biochemicals, Mannheim). […] Constructs of the HC110-R full-length clone with a GFP tag fused in the correct reading frame, and the complete cDNA of the β2-adrenergic receptor which had likewise been provided with a GFP tag at the 3′ end, were transfected. […]
Loading of the cells with 1 μM Fura-2/acetoxymethyl ester (Fura-2/AM) (Sigma, Deisenhofen) took place 48 h after the transfection in an Na^+-HBS solution (150 mM NaCl; 5.4 mM KCl; 1.8 mM CaCl2; 0.8 mM MgSO4 7H2O; 20 mM glucose; 20 mM Hepes in H2O, pH 7.3) at 37° C., 5% CO2 and 95% humidity for 30 min. After the incubation, the cells loaded with Fura-2/AM were examined under an inverted microscope (Zeiss, Axiovert, Germany) and, in parallel with this, in a digital imaging fluorescence microscope (PTI) and differentiated into transfected and untransfected cells at a wavelength of 440 and 490 nm respectively. […]

CC(C)C[C@H]1C(=O)O[C@H](Cc2ccc(N3CCOCC3)cc2)C(=O)N(C)[C@@H](CC(C)C)C(=O)O[C@H](C)C(=O)N(C)[C@@H](CC(C)C)C(=O)O[C@H](Cc2ccc(N3CCOCC3)cc2)C(=O)N(C)[C@@H](CC(C)C)C(=O)O[C@H](C)C(=O)N1C [BAY44-4400, cyclo(-D-Lac-L-MeLeu-D-p-morpholinyl-PhLac-L-MeLeu-)]
changes caused by substance: causes no changes in untransfected cells
